Measurements reported in patent US4468387A, “Pesticidal N-sulfonyl N'-oxalate phosphorodiamido(di)thioates” (Rohm and Haas Company, priority 1982, dated 1984).

Columns and labels:
Type in all cases: in vivo
[1] = system: Two-spotted spider mite (Tetranychus urticae); experiment: mite test, sprayed infested bean leaf discs (two-spotted spider mite); conditions: 600 ppm; leaf disc spray; percent kill after 24 hours
From the text: (§1) A test solution containing 600 ppm of test compound can be made by dissolving the test compound in a solvent (acetone:methanol, 1:1), adding surfactant and then water to give an acetone:methanol:water system of 10:10:80. A 1:1 mixture of an alkylarylpolyetheralcohol (commercially available under the trademark Triton X-155) and a modified phthalic glycerol alkyl resin (commercially available under the trademark Triton B-1956) can be utilized at the equivalent of one ounce per 100 gallons of test solution and a surfactant.
For the mite test, infested bean (Phaseolus limeanus) leaf discs (1.25 inches in diameter) containing about 50 mites are placed in a Petri dish lid on a moistened piece of cotton. The leaves are then sprayed with the test solution using a rotating turntable. They are held for 24 hours and then the percent kill is determined.

[2] = system: Southern armyworm (Spodoptera eridania); experiment: armyworm test, sprayed detached bean leaves, third instar southern armyworm larvae; conditions: 600 ppm, leaf spray, percent kill after 48 hours
From the text: as §1
For the armyworm test, detached bean leaves on pieces of moistened filter paper are sprayed as above for the mite test in similar dishes and allowed to dry. The dishes are infested with 10 third instar southern armyworm larvae. The dishes are covered. After holding for 48 hours, the percent kill is obtained.

[3] = system: Southern root-knot nematode (Meloidogyne incognita); experiment: nematode test, inoculated soil, cucumber root knots; conditions: about 30 ppm by volume in soil; knots on cucumber roots after about 23 days
From the text: as §1
For the nematode test, soil is homogeneously inoculated with a macerated blend of tomato roots heavily knotted with the root knot nematode. Ten milliliters of the test solution are added to 200 milliliters of the inoculated soil in a 16 oz. jar to give a concentration by volume of about 30 ppm. The jar is then shaken to insure thorough mixing, immediately uncapped, and allowed to air for 24 hours. The soil is then placed into a 3 inch plastic pot after which time 3 cucumber (Cucumis sativus) seeds are planted. About 23 days thereafter, the cucumber plants are removed from the soil and the root system examined for the presence of knots. A total of 15 knots or less is considered as a measure of control.

| SMILES | Insecticidal Screening Results, % Control, Two-Spotted Mite [1] [%] | Insecticidal Screening Results, % Control, Southern Armyworm [2] [%] | Nema (control of root-knot nematode) [3] |
| --- | --- | --- | --- |
| CCC(C)SP(=O)(N(C)C(=O)C(=O)Oc1ccc(SC)cc1)N(C)S(C)(=O)=O (stereo not drawn) [Example 8, N-Methanesulfonyl N,N'-dimethyl S-(1-methylpropyl N'-(4-methylthiophenoxy)carbonylcarbonyl phosphorodiamidothioate] | 100 | 100 | + (A total of 15 knots or less is considered as a measure of control) |
| CCC(C)SP(=O)(N(C)C(=O)C(=O)OC1CCCCC1)N(C)S(C)(=O)=O (stereo not drawn) [Example 4, N'-Cyclohexyloxycarbonylcarbonyl N-methanesulfonyl N,N'-dimethyl S-(1-methylpropyl) phosphorodiamidothioate] | 100 | 30 | + (A total of 15 knots or less is considered as a measure of control) |
| CCCSC(=O)C(=O)N(C)P(=O)(SC(C)CC)N(C)S(C)(=O)=O (stereo not drawn) [Example 7, N-Methanesulfonyl N,N'-dimethyl S-(1-methylpropyl) N'-(propylthio)carbonylcarbonyl phosphorodiamidothioate] | 100 | 100 | + (A total of 15 knots or less is considered as a measure of control) |
| CCC(C)SP(=O)(N(C)C(=O)C(=O)OC(C)C)N(C)S(C)(=O)=O (stereo not drawn) [Example 1, N-Methanesulfonyl N,N'-dimethyl N'-[(1-methylethoxycarbonyl)carbonyl] S-(1-methylpropyl) phosphorodiamidothioate] | 100 | 100 | + (A total of 15 knots or less is considered as a measure of control) |
| CCC(C)SP(=O)(N(C)C(=O)C(=O)OC(C)(C)C)N(C)S(C)(=O)=O (stereo not drawn) [Example 3, N-Methanesulfonyl N,N'-dimethyl N'-[(1,1-dimethylethoxy)carbonylcarbonyl] S-(1-methylpropyl) phosphorodiamidothioate] | 100 | 100 | + (A total of 15 knots or less is considered as a measure of control) |
| CCSCCOC(=O)C(=O)N(C)P(=O)(SC(C)CC)N(C)S(C)(=O)=O (stereo not drawn) [Example 11, N'-(2-Ethylthioethoxy)carbonylcarbonyl N-methanesulfonyl N,N'-dimethyl S-(1-methylpropyl) phosphorodiamidothioate] | 100 | 100 | + (A total of 15 knots or less is considered as a measure of control) |
| CCC(C)SP(=O)(N(C)C(=O)C(=O)Oc1ccccc1)N(C)S(C)(=O)=O (stereo not drawn) [Example 6, N-Methanesulfonyl N,N'-dimethyl S-(1-methylpropyl) N'-phenoxycarbonylcarbonyl phosphorodiamidothioate] | 100 | 100 | + (A total of 15 knots or less is considered as a measure of control) |
| CCC(C)SP(=O)(N(C)C(=O)C(=O)OCCOC)N(C)S(C)(=O)=O (stereo not drawn) [Example 13, N-Methanesulfonyl N'-(2-methoxyethoxy)carbonylcarbonyl N,N'-dimethyl S-(1-methylpropyl) phosphorodiamidothioate] | 100 | 100 | + (A total of 15 knots or less is considered as a measure of control) |
| CCC(C)SP(=O)(N(C)C(=O)C(=O)OCc1ccccc1)N(C)S(C)(=O)=O (stereo not drawn) [Example 14, N'-Benzyloxycarbonylcarbonyl N-methanesulfonyl N,N'-dimethyl S-(1-methylpropyl) phosphorodiamidothioate] | 100 | 100 | + (A total of 15 knots or less is considered as a measure of control) |
| CCC(C)OC(=O)C(=O)N(C)P(=O)(SC(C)CC)N(C)S(C)(=O)=O (stereo not drawn) [Example 9, N-Methanesulfonyl N,N'-dimethyl S-(1-methylpropyl) N'-(1-methylpropyloxy)carbonylcarbonyl phosphorodiamidothioate] | 100 | 100 | + (A total of 15 knots or less is considered as a measure of control) |
| CCC(C)SP(=O)(N(C)C(=O)C(=O)SC1CCCCC1)N(C)S(C)(=O)=O (stereo not drawn) [Example 12, N'-(Cyclohexylthio)carbonylcarbonyl N-methansulfonyl N,N'-dimethyl S-(1-methylpropyl) phosphorodiamidothioate] | 100 | 100 | + (A total of 15 knots or less is considered as a measure of control) |
| CCC(C)SP(=O)(N(C)C(=O)C(=O)OC)N(C)S(C)(=O)=O (stereo not drawn) [Example 2, N-Methanesulfonyl N'-[(methoxycarbonyl)carbonyl] N,N'-dimethyl S-(1-methylpropyl) phosphorodiamidothioate] | 100 | 100 | + (A total of 15 knots or less is considered as a measure of control) |
| CCC(C)SP(=O)(N(C)C(=O)C(=O)OCCCl)N(C)S(C)(=O)=O (stereo not drawn) [Example 10, N'-(2-Chloroethoxy)carbonylcarbonyl N-methanesulfonyl N,N'-dimethyl S-(1-methylpropyl) phosphorodiamidothioate] | 100 | 100 | + (A total of 15 knots or less is considered as a measure of control) |
